These are literature values, as cited in US7329690B2, “Effectiveness of invertebrate pest-control agents” (FMC Corporation, priority 2001, dated 2008).

With `O=[N+]([O-])NC1=NCCN1Cc1ccc(Cl)nc1` [imidacloprid], the water solubility is on record as 610 ppm.
